Measurements as given in PMC10687260, “1,3-Diphenylureido hydroxamate as a promising scaffold for generation of potent antimalarial histone deacetylase inhibitors” (Scientific Reports, 2023).

Experiments:
[1] = Stability in mouse hepatic microsomes; assay type: in vitro ADME; details: for half-life at 1 µM: 1 mg/mL hepatic microsomes, 1 µM compound, read-out: Half-life t1/2 Mouse; for microsomal CLint at 1 µM: read-out: Intrinsic clearance Clint Mouse
Text: DMPK evaluation. […].

[2] = system: HepG2 cells; experiment: Cytotoxicity in human HepG2 cells (WST-1); assay type: cell-based; details: Homo sapiens, HepG2; 48 h, WST-1; read-out: IC50 HepG2
In short: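 HepG2 cells (10^4/well, seeded overnight) were exposed to two-fold serial compound dilutions in fresh medium, then given WST-1 for 4 h. Formazan absorbance at 450 nm, with 630 nm background, was scaled 0–100% against untreated and DMSO controls.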

[3] = target: T1, human HDAC6 (Homo sapiens, UniProt Q9UBN7); experiment: In vitro HDAC enzymatic assay, HDAC6; assay type: biochemical; details: for IC50: mean ± SD; for HDAC1/6 SI: ratio HsHDAC1 IC50/HsHDAC6 IC50
T1 construct: purchased ENZO Life Sciences AG (Lausen, CH)
T1 sequence (Q9UBN7 1-1215): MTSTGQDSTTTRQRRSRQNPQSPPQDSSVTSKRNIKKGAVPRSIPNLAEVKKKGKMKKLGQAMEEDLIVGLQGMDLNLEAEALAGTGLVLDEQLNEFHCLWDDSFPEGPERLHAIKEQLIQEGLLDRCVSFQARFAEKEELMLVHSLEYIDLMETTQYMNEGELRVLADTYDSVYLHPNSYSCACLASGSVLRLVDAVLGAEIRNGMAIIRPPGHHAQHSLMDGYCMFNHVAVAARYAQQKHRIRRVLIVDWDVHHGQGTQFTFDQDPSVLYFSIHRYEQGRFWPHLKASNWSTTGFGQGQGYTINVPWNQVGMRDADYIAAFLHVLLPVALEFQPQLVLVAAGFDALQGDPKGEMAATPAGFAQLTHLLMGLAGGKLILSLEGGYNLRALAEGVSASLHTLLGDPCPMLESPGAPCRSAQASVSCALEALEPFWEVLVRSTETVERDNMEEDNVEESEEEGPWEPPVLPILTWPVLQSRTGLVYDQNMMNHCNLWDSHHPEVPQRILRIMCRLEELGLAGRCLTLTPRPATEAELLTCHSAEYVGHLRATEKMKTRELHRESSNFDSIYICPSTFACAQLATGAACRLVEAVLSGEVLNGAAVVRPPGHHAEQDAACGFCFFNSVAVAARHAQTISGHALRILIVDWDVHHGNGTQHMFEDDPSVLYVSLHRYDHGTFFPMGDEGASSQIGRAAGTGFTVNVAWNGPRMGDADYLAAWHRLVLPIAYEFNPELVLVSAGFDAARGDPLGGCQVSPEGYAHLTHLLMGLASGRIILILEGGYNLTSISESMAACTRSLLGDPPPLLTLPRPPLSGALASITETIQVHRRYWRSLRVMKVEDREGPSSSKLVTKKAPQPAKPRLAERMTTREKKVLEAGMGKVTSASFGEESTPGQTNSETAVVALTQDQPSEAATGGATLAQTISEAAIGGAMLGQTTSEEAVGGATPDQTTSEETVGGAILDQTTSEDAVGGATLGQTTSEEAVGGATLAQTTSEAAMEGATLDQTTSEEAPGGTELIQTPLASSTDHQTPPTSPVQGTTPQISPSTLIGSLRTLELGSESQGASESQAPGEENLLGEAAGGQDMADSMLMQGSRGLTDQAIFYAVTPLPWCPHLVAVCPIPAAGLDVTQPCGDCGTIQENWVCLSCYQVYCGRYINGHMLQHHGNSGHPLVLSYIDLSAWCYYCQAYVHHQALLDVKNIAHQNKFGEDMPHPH
Method: (§1) In vitro HDAC enzymatic assays. Recombinant human HDAC1 and HDAC6 were purchased from ENZO Life Sciences AG (Lausen, CH) whereas HDAC8 was produced as described before. In vitro testing of the inhibitors in an enzymatic assay was carried out as described in previous publications[32],[33]. For HDAC1 a fluorogenic peptide derived from p53 (Ac-RHKK(Acetyl)-AMC) was used. For HDAC6, the substrate (Abz-SRGGK(thio-TFA)FFRR-NH2) was used as described before.

[4] = target: T2, HDAC8 (Homo sapiens, UniProt Q9BY41); experiment: In vitro HDAC enzymatic assay, HDAC8; assay type: biochemical; details: mean ± SD
T2 construct: made in house
T2 sequence (Q9BY41 1-377): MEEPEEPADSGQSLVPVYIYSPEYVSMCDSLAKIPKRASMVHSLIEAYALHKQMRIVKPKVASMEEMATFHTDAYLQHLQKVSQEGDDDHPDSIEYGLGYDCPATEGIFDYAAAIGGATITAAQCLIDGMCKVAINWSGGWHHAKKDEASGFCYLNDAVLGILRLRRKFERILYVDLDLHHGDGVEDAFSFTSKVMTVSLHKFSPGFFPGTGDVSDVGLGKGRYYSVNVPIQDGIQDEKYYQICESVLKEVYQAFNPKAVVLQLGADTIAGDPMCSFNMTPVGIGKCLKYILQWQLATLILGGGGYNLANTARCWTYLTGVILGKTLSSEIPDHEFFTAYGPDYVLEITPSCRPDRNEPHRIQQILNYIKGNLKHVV
Method: as §1

**Q.** For `COc1ccc(NC(=O)Nc2ccc(/C=C/C(=O)NO)cc2)cc1` [Compound 6c, (E)-N-hydroxi-3-(4-(3-(4-methoxyphenyl)ureido)phenyl)acrylamide], which half-life at 1 µM [1] is on record?
**A.** The half-life at 1 µM was 4.4 min.

**Q.** What about the microsomal CLint at 1 µM [1] of the same compound?
**A.** Its microsomal CLint at 1 µM is 158 µL/min/mg.

**Q.** And the IC50 [2]?
**A.** The IC50 was 13.3 µM.

**Q.** What about the IC50 [3] of the same compound?
**A.** The IC50 was 0.0077 ± 0.0009 µM.

**Q.** What about the “HDAC1/6 SI” value [3] of the same compound?
**A.** Its value is 206.

**Q.** What about the IC50 [4] of the same compound?
**A.** Its IC50 is 0.0637 ± 0.0042 µM.

**Q.** With `COc1ccc(NC(=O)Nc2ccc(CCC(=O)NO)cc2)cc1` [Compound 7c, N-hydroxy-3-(4-(3-(4-methoxyphenyl)ureido)phenyl)propanamide] as the compound, how does the half-life at 1 µM [1] read?
**A.** The half-life at 1 µM was 4.1 min.

**Q.** What about the microsomal CLint at 1 µM [1] of the same compound?
**A.** Its microsomal CLint at 1 µM is 169 µL/min/mg.

**Q.** What about the IC50 [2] of the same compound?
**A.** Its IC50 is greater than 50 µM.

**Q.** What about the IC50 [3] of the same compound?
**A.** Its IC50 is 0.151 ± 0.0111 µM.

**Q.** And the “HDAC1/6 SI” value [3]?
**A.** Its value is 23.

**Q.** What about the IC50 [4] of the same compound?
**A.** Its IC50 is 0.362 ± 0.0227 µM.

**Q.** With `O=C(Nc1ccccc1)Nc1ccc(C(=O)NO)cc1` [Compound 8a, N-hydroxy-4-(3-phenylureido)bezamide] as the compound, how does the half-life at 1 µM [1] read?
**A.** The half-life at 1 µM was 10.1 min.

**Q.** What about the microsomal CLint at 1 µM [1] of the same compound?
**A.** The microsomal CLint at 1 µM was 69 µL/min/mg.

**Q.** What about the IC50 [2] of the same compound?
**A.** Its IC50 is 56 µM.

**Q.** What about the IC50 [3] of the same compound?
**A.** The IC50 was 0.0085 ± 0.0008 µM.

**Q.** And the “HDAC1/6 SI” value [3]?
**A.** Its value is 627.

**Q.** What about the IC50 [4] of the same compound?
**A.** Its IC50 is 0.0935 ± 0.0053 µM.

**Q.** With `O=C(Nc1ccc(Cl)cc1)Nc1ccc(C(=O)NO)cc1` [Compound 8b, 4-(3-(4-chlorophenyl)ureido)-N-hydroxybenzamide] as the compound, how does the half-life at 1 µM [1] read?
**A.** Its half-life at 1 µM is 4 min.

**Q.** And the microsomal CLint at 1 µM [1]?
**A.** The microsomal CLint at 1 µM was 173 µL/min/mg.

**Q.** What about the IC50 [2] of the same compound?
**A.** Its IC50 is greater than 200 µM.

**Q.** And the IC50 [3]?
**A.** Its IC50 is 0.015 ± 0.0004 µM.

**Q.** And the “HDAC1/6 SI” value [3]?
**A.** The value was 349.

**Q.** What about the IC50 [4] of the same compound?
**A.** The IC50 was 0.0851 ± 0.0096 µM.

**Q.** What does the source list for `COc1ccc(NC(=O)Nc2ccc(C(=O)NO)cc2)cc1` [Compound 8c, N-hydroxy-4-(3–4(-methoxyphenyl)ureido)benzamide]?
**A.** half-life at 1 µM [1]: 2.5 min; microsomal CLint at 1 µM [1]: 281 µL/min/mg; IC50 [2]: > 200 µM; IC50 [3]: 0.0159 ± 0.0004 µM; IC50 [4]: 0.136 ± 0.0082 µM

**Q.** Which half-life at 1 µM [1] does the source give for `O=C(Nc1ccc(C(=O)NO)cc1)Nc1ccc([N+](=O)[O-])cc1` [Compound 8d, N-hydroxy-4-(3-(4-nitrophenyl)ureido)benzamide] here?
**A.** Its half-life at 1 µM is 13.8 min.

**Q.** And the microsomal CLint at 1 µM [1]?
**A.** The microsomal CLint at 1 µM was 50 µL/min/mg.

**Q.** And the IC50 [2]?
**A.** The IC50 was 54 µM.

**Q.** And the IC50 [3]?
**A.** Its IC50 is 0.0134 ± 0.0005 µM.

**Q.** And the “HDAC1/6 SI” value [3]?
**A.** Its value is 279.

**Q.** What about the IC50 [4] of the same compound?
**A.** The IC50 was 0.0681 ± 0.0068 µM.
